IC50 and Ki data for three compounds are collected here from ChEMBL document CHEMBL1152378 (Bioorg Med Chem Lett, 2009).

Among the targets are Carbonic anhydrase 2 (Homo sapiens, UniProt P00918); Carbonic anhydrase 14 (Homo sapiens, UniProt Q9ULX7); Carbonic anhydrase 9 (Homo sapiens, UniProt Q16790); Carbonic anhydrase 6 (Homo sapiens, UniProt P23280); Carbonic anhydrase 7 (Homo sapiens, UniProt P43166); Carbonic anhydrase 13 (Mus musculus, UniProt Q9D6N1); Carbonic anhydrase 3 (Homo sapiens, UniProt P07451); Carbonic anhydrase 12 (Homo sapiens, UniProt O43570); Carbonic anhydrase 1 (Homo sapiens, UniProt P00915); Carbonic anhydrase 4 (Homo sapiens, UniProt P22748).

For the next assay, the target named is T1, Carbonic anhydrase 15 (Mus musculus, UniProt Q99N23).
T1 sequence (Q99N23 whole entry): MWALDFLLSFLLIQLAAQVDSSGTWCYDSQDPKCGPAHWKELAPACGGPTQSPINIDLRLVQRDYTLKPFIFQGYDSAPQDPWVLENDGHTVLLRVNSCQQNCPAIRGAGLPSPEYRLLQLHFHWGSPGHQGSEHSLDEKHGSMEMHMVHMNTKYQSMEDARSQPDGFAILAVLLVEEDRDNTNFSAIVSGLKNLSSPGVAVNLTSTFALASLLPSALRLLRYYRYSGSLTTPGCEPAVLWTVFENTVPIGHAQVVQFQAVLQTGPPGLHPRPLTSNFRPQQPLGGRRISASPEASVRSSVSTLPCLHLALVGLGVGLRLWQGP

Assay [1] has as its target Carbonic anhydrase 5A, mitochondrial (Homo sapiens, UniProt P35218).
In assay [2] the target is Carbonic anhydrase 5B, mitochondrial (Homo sapiens, UniProt Q9Y2D0).

The structures appear in SMILES notation.

Sequence of Carbonic anhydrase 1 (P00915 whole entry): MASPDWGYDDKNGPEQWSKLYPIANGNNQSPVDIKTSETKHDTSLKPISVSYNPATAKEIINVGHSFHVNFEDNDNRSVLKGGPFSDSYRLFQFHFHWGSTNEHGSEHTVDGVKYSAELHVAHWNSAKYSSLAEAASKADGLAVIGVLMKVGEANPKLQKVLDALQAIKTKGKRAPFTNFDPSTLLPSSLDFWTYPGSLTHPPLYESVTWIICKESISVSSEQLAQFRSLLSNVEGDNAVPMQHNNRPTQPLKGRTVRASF
Sequence of Carbonic anhydrase 5A, mitochondrial (P35218 whole entry): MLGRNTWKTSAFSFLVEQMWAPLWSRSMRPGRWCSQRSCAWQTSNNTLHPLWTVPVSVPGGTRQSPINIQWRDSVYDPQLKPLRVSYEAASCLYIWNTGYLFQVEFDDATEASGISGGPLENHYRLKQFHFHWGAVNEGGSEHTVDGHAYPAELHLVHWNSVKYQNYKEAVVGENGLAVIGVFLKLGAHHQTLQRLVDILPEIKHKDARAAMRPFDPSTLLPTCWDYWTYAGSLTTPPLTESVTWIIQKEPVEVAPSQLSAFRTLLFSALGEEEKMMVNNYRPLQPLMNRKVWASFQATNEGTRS
Sequence of Carbonic anhydrase 13 (Q9D6N1 whole entry): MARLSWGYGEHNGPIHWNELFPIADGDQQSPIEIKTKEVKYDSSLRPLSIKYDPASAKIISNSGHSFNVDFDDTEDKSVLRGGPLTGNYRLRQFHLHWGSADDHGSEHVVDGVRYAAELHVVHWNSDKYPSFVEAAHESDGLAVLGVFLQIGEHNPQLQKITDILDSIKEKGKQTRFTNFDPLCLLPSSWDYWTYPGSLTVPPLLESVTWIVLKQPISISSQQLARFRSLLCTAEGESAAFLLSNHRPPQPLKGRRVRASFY
Sequence of Carbonic anhydrase 3 (P07451 whole entry): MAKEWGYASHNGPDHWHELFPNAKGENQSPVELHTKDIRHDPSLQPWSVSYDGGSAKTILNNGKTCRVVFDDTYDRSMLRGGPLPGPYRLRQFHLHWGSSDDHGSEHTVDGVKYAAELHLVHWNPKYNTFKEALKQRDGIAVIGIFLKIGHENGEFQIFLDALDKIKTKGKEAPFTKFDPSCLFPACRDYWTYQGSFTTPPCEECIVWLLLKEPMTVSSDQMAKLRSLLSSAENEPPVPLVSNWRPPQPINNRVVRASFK
Sequence of Carbonic anhydrase 6 (P23280 whole entry): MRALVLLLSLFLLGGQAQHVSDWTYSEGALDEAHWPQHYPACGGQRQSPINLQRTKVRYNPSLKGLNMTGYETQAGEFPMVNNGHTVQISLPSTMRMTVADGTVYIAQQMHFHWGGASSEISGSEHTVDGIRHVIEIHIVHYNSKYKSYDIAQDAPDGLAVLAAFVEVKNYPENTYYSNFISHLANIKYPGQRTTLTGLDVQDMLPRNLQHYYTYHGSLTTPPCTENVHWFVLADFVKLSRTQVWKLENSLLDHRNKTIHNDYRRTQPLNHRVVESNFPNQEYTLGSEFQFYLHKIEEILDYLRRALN
Sequence of Carbonic anhydrase 14 (Q9ULX7 whole entry): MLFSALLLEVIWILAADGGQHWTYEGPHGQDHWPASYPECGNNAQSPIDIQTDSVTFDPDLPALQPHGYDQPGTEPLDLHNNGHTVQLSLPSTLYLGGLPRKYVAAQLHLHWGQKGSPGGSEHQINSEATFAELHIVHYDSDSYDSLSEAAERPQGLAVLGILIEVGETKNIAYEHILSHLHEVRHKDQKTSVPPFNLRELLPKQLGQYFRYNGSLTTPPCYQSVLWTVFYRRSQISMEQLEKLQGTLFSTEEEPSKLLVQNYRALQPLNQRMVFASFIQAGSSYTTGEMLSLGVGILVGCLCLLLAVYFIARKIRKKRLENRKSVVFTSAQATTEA
Sequence of Carbonic anhydrase 5B, mitochondrial (Q9Y2D0 whole entry): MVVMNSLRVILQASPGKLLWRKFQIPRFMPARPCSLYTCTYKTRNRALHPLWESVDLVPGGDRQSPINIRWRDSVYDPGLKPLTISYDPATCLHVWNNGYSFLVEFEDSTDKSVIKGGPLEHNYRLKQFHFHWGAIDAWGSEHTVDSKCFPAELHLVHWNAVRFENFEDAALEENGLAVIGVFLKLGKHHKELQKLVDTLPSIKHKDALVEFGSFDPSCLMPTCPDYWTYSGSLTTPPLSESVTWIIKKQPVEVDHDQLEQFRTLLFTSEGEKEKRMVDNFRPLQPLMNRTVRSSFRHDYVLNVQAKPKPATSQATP
Sequence of Carbonic anhydrase 12 (O43570 whole entry): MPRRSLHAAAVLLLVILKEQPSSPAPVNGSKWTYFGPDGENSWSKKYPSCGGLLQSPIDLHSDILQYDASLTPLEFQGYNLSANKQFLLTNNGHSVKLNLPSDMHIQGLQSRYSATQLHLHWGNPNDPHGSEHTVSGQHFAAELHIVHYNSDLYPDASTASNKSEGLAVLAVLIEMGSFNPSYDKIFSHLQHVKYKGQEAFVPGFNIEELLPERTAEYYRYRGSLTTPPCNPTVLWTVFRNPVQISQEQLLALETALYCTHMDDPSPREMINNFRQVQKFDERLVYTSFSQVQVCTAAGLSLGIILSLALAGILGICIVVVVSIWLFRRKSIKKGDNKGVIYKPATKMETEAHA
Sequence of Carbonic anhydrase 7 (P43166 whole entry): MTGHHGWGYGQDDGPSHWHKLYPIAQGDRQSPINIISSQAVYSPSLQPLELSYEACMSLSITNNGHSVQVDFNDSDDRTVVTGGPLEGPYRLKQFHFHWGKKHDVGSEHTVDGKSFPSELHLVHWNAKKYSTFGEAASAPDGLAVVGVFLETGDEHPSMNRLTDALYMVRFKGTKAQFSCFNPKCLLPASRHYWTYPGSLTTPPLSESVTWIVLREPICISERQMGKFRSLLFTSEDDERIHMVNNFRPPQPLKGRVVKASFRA
Sequence of Carbonic anhydrase 4 (P22748 whole entry): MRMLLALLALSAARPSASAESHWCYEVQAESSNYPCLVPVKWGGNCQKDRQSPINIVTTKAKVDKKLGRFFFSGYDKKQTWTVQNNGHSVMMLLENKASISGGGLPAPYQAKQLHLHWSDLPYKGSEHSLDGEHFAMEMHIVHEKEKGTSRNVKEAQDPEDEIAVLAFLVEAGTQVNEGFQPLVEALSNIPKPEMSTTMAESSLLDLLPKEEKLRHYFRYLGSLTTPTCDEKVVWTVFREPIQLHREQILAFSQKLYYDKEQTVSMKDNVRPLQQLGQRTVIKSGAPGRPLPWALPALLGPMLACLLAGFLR

At Carbonic anhydrase 2, `C#CCNc1nc(Nc2ccc(S(N)(=O)=O)cc2)ncc1Br` registered a concentration for half-maximal inhibition (IC50) of 331 nM.
As to `COc1cc(O)c(/C=C\C(=O)O)cc1[C@@H](O)CC(C)C`, the IC50 at Carbonic anhydrase 14 was determined as 780 nM; against Carbonic anhydrase 15 it was 93100 nM; against Carbonic anhydrase 9, 54500 nM; in [1], 9600 nM; against Carbonic anhydrase 6 it was 35700 nM; on Carbonic anhydrase 7, 27900 nM. Moreover, the IC50 at Carbonic anhydrase 13 is 790 nM; against Carbonic anhydrase 3, over 10 nM; against Carbonic anhydrase 12, 48600 nM; in assay [2], 17700 nM; on Carbonic anhydrase 1 it was 78 nM.
Consider `Cc1cn(-c2cc(NC(=O)c3ccc(C)c(Nc4nccc(-c5cccnc5)n4)c3)cc(C(F)(F)F)c2)cn1` [NILOTINIB], for which the Ki at Carbonic anhydrase 14 was determined as 223 nM; at Carbonic anhydrase 15, 79 nM; on Carbonic anhydrase 9, 41.9 nM; in assay [1], 5490 nM; at Carbonic anhydrase 6, 461 nM; at Carbonic anhydrase 4, 446 nM. The inhibitory constant (Ki) on Carbonic anhydrase 13 amounted to 4670 nM; on Carbonic anhydrase 3, 443 nM; on Carbonic anhydrase 12, 302 nM; in assay [2] it was 14900 nM; at Carbonic anhydrase 1, 29.3 nM.
